From article PMC11656837, “pH-Responsive Peptide Nanoparticles Deliver Macromolecules to Cells via Endosomal Membrane Nanoporation” (ACS Nano, 2024) come the findings set out here.

A short description of series [1]: Particle size by quasielastic / dynamic light scattering. Type of series: physicochemical. As to conditions: QLS/DLS. The method, then: To test this hypothesis, we next studied the C16-D-pHD108 particle size in solution using quasielastic light scattering (QLS). Samples of C16-D-pHD108 were dissolved in PBS with 138 mM NaCl, PBS with 69 mM NaCl, or PO4 buffer with no added salt. Most measurements were made at 25 μM peptides, but we tested concentrations between 25 and 200 μM peptides. Buffer without peptides gave a very low scattering intensity and no coherent particle peaks. […] Salt concentrations of 0, 69, and 138 mM had only small effects on the nanoparticle size. The median particle size for all samples was ∼120 nm. Particle size distributions for 25 μM C16-D-pHD108 are shown in Figure 8C at several salt concentrations for independently prepared samples. In Figure 8D, the light scattering intensity is shown to be a linear function of peptide concentration, with a Y-intercept at zero.
Dynamic light scattering was performed by using a Malvern Zetasizer Nano ZS90 DLS instrument. After HPLC purification, 10 nmol aliquots of C16-D-pHD108 were dried in silanized Eppendorf tubes. Peptide readily dissolved in PBS buffer and other aqueous buffers and remained stable in solution. For DLS samples, C16-D-pHD108 was dissolved in PBS with 138 mM NaCl, in PBS with 69 mM NaCl (50% of normal), or in a PO4 buffer with no added salt. Most measurements were made at 25 μM peptide, but we tested concentrations between 25 and 200 μM peptide. […]

Series [2] concerns HeLa cells. Put plainly: Cytosolic delivery of AF488-dextran 10 kDa (confocal microscopy). The series is classed as cell-based, human. The method, then:
Just before imaging, cell nuclei were stained with Hoechst 33342 (blue); the external AF488-dextran was washed away, and AF647-dextran (lavender) was added to mark the extracellular spaces and cell boundaries. […] Individual intensity scans across single cells, indicated by the yellow arrows, are plotted in Figure 5E,F as examples. To measure cytosolic dextran concentrations, dextran intensity was measured in the external spaces, where it is at background levels and in puncta-free, nuclear/cytosolic areas of each cell.
These experiments were done using a very low solution concentration of 0.1 μM AF488-dextran 10 kDa to minimize any possible self-quenching in endosomes and to minimize any osmotic effect of the dextran on endosomal stability. […] Before imaging, the AF488-dextran was washed off, and Cascade Blue dextran 10 kDa was added to mark the external spaces and cell boundaries. […] Dextran delivered to the cytosol and nucleus, which was the only intensity that we measured in Figure 6A,B, was identified by its diffuse and uniform intensity in the nucleus and cytosol of each cell. In Figure 6E, cytosolic and nuclear concentrations of dextran are expressed as a percent of the external concentration incubated with cells based on comparison to a standard curve of fluorescence intensity versus concentration that was measured separately at the same instrument settings.
After overnight incubation, external AF488-dextran (green) was washed off and replaced with Cascade Blue dextran (blue) or AF647-dextran (lavender) just before imaging to mark the external spaces and cell boundaries. Cells were also treated with Hoechst 33342 (blue) to stain the nuclei. Quantitation was performed by generating a standard curve from microscopy images of solutions of AF488-dextran of known concentrations. For quantification, we noted the intensity of the cell nuclei. Multiple small circular areas of interest of a preset size were selected in cells in areas that were in the nucleus or had no obvious puncta. The same was done for the standard curve images. The fluorescence of each point of interest was quantified using the Nikon Elements software, and the concentration was determined using a standard curve and expressed as a percent of the initial incubating concentration.

The nature of series [3]: Tryptophan fluorescence emission (water exposure of Trp19). Type of series: physicochemical. The note with it: buffer pH 7, no vesicles, 25 μM peptide in PBS. From the text:
Here, in Figure 8, we examine the solution behavior of C16-D-pHD108 using tryptophan fluorescence to measure the water exposure of the tryptophan residue at position 19, Figure 1, and using circular dichroism spectroscopy to measure the secondary structure.
In Figure 8B, we show tryptophan emission spectra for the same three samples.

In series [4] the test system is HeLa cells. Put plainly: Cell binding (peptide remaining in solution by HPLC). Type of series: cell-based, human. The note with it: HeLa 10^6 cells/ml in PBS pH 7, 20 μM peptide, 30 min, room temperature, supernatant by HPLC. As for the experimental part:
This was done by equilibrating a peptide solution with and without cells for 30 min, followed by measurement of the peptide remaining in solution using reverse phase HPLC. […] The cells were also stained with the DNA staining dye Hoechst 33342. […] Cell/membrane staining by C16-D-pHD108-TAMRA continues to grow rapidly as peptides accumulate on the membranes.
HeLa or RAW 264.7 cells were trypsinized, washed, and counted. Cells were concentrated in a minimal amount of PBS. To measure binding, 25 μL of cells at a known count were transferred to tubes and 25 μL of peptide in PBS was added for a final peptide concentration of 20 μM. Samples were incubated for 30 min with gentle agitation at room temperature. Cells were pelleted in a swinging bucket centrifuge, and 30 μL of supernatant was subjected to HPLC to measure the peptide remaining in the solution. A sample without cells but treated identically was used as a negative control for binding to normalize the recovered peptide.

On to `CCCCCCCCCCCCCCCC(=O)NCC(=O)N[C@@H](C(=O)NCC(=O)N[C@H](CCC(=O)O)C(=O)N[C@@H](C(=O)N[C@H](CC(C)C)C(=O)N[C@H](Cc1c[nH]cn1)C(=O)N[C@H](CCC(=O)O)C(=O)N[C@H](CC(C)C)C(=O)N[C@H](C)C(=O)N[C@H](CCC(=O)O)C(=O)NCC(=O)N[C@H](CC(C)C)C(=O)N1CCC[C@@H]1C(=O)N[C@H](CCC(=O)O)C(=O)N[C@H](CC(C)C)C(=O)N[C@H](CCC(N)=O)C(=O)N[C@H](CCC(=O)O)C(=O)N[C@H](Cc1c[nH]c2ccccc12)C(=O)N[C@@H](C(=O)N[C@H](Cc1c[nH]cn1)C(=O)N[C@H](C)C(=O)N[C@H](C)C(=O)N[C@H](CCC(N)=O)C(=O)N[C@H](CCC(N)=O)C(=O)N[C@H](CC(C)C)C(N)=O)[C@H](C)CC)C(C)C)[C@H](C)CC` [C16-D-pHD108], for which the “stability of particle size distributions” value in series [1] (after sample preparation, pH 7) is on record as “stable up to a week”. The “median particle size / average diameter” value in series [1] (all samples, buffer pH 7) is “around 120 nm”. In the series with HeLa cells [2] (3 μM peptide, 0.1 μM AF488-dextran 10 kDa, overnight, 37 °C), the cytosolic dextran concentration entry was “Low but statistically significant”. Moreover, in the series on HeLa cells [2] (25 μM peptide, 0.1 μM AF488-dextran 10 kDa, overnight, 37 °C, ~50 cells), the “cytosolic dextran concentration, average, percent of applied external concentration” value is given as “about 12%”. Moreover, the “dextran staining of nucleus and cytosol” value in the series with HeLa cells [2] (25 μM peptide, 25 μM AF488-dextran 10 kDa, overnight, 37 °C) is “diffusely and uniformly stained with dextran”. The “delivery of dextran to the cytosol at 4 °C” value with HeLa cells [2] (25 μM peptide, 4 °C) is “does not enable any measurable delivery of dextran to the cytosol”. The “plasma membrane permeabilization (entry of Cascade Blue dextran added before imaging)” value in the series with HeLa cells [2] (25 μM peptide, 37 °C) is “not permeabilized”. Besides, the “cytosolic delivery of AF488-dextran, C16-L-pHD108 compared with C16-D-pHD108” value in the series with HeLa cells [2] (HeLa, overnight, 37 °C) was “significantly more active”. For the same compound, in series [3], the “tryptophan fluorescence emission maximum” value is recorded as 330 nm. For the same compound, in the series on HeLa cells [4], the “binding to cells at pH 7” value is “no measurable binding”.
